Converted amounts (≈) assume the structure as drawn.
Columns and labels:
[1] = Particle size by laser diffraction method (Microtrac MT3000); type: physicochemical; conditions: dispersion medium: water
Protocol: (§1) Luliconazole was ground with a mortar to change the particle size, and the anti-Tritrichomonas activity of solid luliconazole was studied. More specifically, luliconazole having a variety of particle sizes was added in an amount of 5 mg to 5 mL of Diamond's media supplemented with 10% adult bovine serum, and 10,000 cells of Tritrichomonas mobilensis were inoculated on the media, cultured at 35° C. for 24 hours, and then measured for the number of viable T. mobilensis cells by use of a Neubauer hemocytometer. Luliconazole was not added to the control group. The growth inhibition rate was calculated as follows: [(the number of viable cells of the control group−the number of viable cells of the sample group)/the number of viable cells of the control group]×100. […] It is noted that the particle size was measured by a laser diffraction method (Microtrac MT3000, manufactured by NIKKISO CO., LTD; dispersion medium: water).

[2] = system: Tritrichomonas mobilensis; assay: Anti-Tritrichomonas activity of solid ground luliconazole (viable count, growth inhibition rate); type: cell-based; conditions: 35° C., 24 hours; for Viable Cell Count Ave.: 5 mg solid in 5 mL Diamond's medium with 10% adult bovine serum, 10,000 cells inoculated; for Growth Inhibition Rate: 5 mg solid in 5 mL medium, 10,000 cells, [(control-sample)/control]×100
Protocol: It is noted that the growth inhibition rate is calculated as follows: [(the number of viable cells of the control group−the number of viable cells of the sample group)/the number of viable cells of the control group]×100. It is preferred that the anti-Tritrichomonas effect is determined 24 to 72 hours after the inoculation of 10,000 cells of Tritrichomonas protozoa on 5 mL of liquid medium in which 5 mg of sample luliconazole is added. As the liquid medium, it is preferred to use Diamond's medium with 5% to 15% adult bovine serum added as desired.
as §1

[3] = system: Tritrichomonas mobilensis; assay: Anti-Tritrichomonas effect of supernatant from medium stored with ground luliconazole; type: cell-based; conditions: supernatant of medium stored with 5 mg ground luliconazole at 35° C. for 24 hours
Protocol: In order to confirm the influence of luliconazole which was eluted in the solutions in Example 2, 7 minute-ground luliconazole was added in an amount of 5 mg to Diamond's medium with 10% adult bovine serum added, and stored at 35° C. for 24 hours, and the supernatant was obtained from the Diamond's medium. Tritrichomonas mobilensis was inoculated on the supernatant, cultured at 35° C. for 24 hours and measured for the number of viable cells by use of a Neubauer hemocytometer. Luliconazole was not added to the control group. The result from the control group was 973,333±23,094 while the result from the supernatant was 1,000,000±144,222. […] In this regard as well, it is clear that luliconazole can control effectively Tritrichomonas protozoa in the intestinal tract.

[4] = from Lulicon Cream Pharmaceutical Product Interview Form 2006; cited from earlier work
[5] = system: Tritrichomonas mobilensis (T. mobilensis: USA: M776 c12); assay: Activity of luliconazole in solution against Tritrichomonas mobilensis (viable count, Neubauer hemocytometer); type: cell-based; conditions: luliconazole dissolved in methanol, Diamond's medium with 10% adult bovine serum, 35° C., 24 hours
Protocol: The activity of luliconazole against Tritrichomonas mobilensis of the genus Tritrichomonas (T. mobilensis: USA: M776 c12) was studied. Luliconazole as synthesized according to the method disclosed in the above JP 60-218387 A was used as a sample. More specifically, Tritrichomonas protozoa were cultured on Diamond's medium with 10% adult bovine serum added. Luliconazole was dissolved in 100 μL of methanol to obtain solutions having a variety concentrations of luliconazole. The cultures were then inoculated on 5 mL of 10% adult bovine serum-added Diamond's media in which the solutions were added, cultured at 35° C. for 24 hours, and then measured for the number of viable Tritrichomonas protozoa by use of a Neubauer hemocytometer. MIC and IC50 were obtained from the number of viable protozoa. MIC was 50 μg/mL and IC50 was 10. 1 μg/mL.

Row | Compound | D50 [1] [μm] | Viable Cell Count Ave. [2] | Growth Inhibition Rate [2] | anti-Tritrichomonas effect of supernatant [3] | number of viable cells ([3]; culture 35° C., 24 hours, control 973,333±23,094) | solubility in water [4] | IC50 [5] [µg/mL] | MIC [5] [µg/mL]
1 | N#C/C(=C1/SC[C@@H](c2ccc(Cl)cc2Cl)S1)n1ccnc1 [5-minute ground luliconazole, luliconazole] | 114.4 | 43,333 | 75.5 | – | – | – | – | –
2 | N#C/C(=C1/SC[C@@H](c2ccc(Cl)cc2Cl)S1)n1ccnc1 [6-minute ground luliconazole, luliconazole] | 96.6 | 20,000 | 88.7 | – | – | – | – | –
3 | N#C/C(=C1/SC[C@@H](c2ccc(Cl)cc2Cl)S1)n1ccnc1 [7-minute ground luliconazole, luliconazole] | 84.7 | 20,000 | 88.7 | did not have anti-Tritrichomonas effect | 1,000,000±144,222 | – | – | –
4 | N#C/C(=C1/SC[C@@H](c2ccc(Cl)cc2Cl)S1)n1ccnc1 [8-minute ground luliconazole, luliconazole] | 78.5 | 26,667 | 84.9 | – | – | – | – | –
5 | N#C/C(=C1/SC[C@@H](c2ccc(Cl)cc2Cl)S1)n1ccnc1 [Luliconazole, luliconazole] | – | – | – | – | – | insoluble in water | 10.1 (≈ 28.5 µM) | 50 (≈ 141 µM)

— US20190111026A1, “ANTI-TRITRICHOMONAS AGENT” (Pola Pharma Inc., priority 2016, published 2019)
